Patent US8097650B2, “Method of treating a condition associated with phosphorylation of TASK-1” (The Trustees of Columbia University In The City of New York, priority 2005, dated 2012)

What was measured:
mTRAAK = biological target: T1, mTRAAK (Mus musculus, UniProt O88454); assay: mTRAAK current in HEK cells (ramp clamp); format: cell-based; conditions: read-out: EC50 for activation of TRAAK current
T1 construct: expressed in transfected cells; host or cells: HEK cells
T1 sequence (O88454 1-398): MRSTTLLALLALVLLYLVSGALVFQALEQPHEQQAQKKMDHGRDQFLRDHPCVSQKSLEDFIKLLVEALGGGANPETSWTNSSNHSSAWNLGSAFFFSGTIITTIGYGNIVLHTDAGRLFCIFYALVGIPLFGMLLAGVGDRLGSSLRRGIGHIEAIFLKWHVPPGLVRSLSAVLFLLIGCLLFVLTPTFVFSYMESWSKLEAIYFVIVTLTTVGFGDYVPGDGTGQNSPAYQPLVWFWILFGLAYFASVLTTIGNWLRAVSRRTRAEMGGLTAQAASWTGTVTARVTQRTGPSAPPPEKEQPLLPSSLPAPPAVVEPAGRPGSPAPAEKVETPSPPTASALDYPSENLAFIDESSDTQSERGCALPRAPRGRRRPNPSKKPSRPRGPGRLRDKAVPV
Protocol: FIG. 21. CHO cells (hTREK-1, hTASK-1) or HEK cells (mTRAAK) were co-transfected with plasmids encoding one of the two pore domain channels and GFP using the GeneJammer reagent. After 48-60 h, the expressed current was measured using a ramp protocol while the cells were perfused with regular Tyrode's solution containing varying concentrations of ONO-RS-082 (range of concentration from 10 nM to 500 μM as noted in FIG. 21) until a steady state was reached. Each cell was exposed to only one concentration of drug. Panel A: TREK-1 current was determined using a ramp clamp, and the percent increase induced by ONO-RS-082 was measured at the most positive imposed voltage (n≧5). The EC50 for activation was around 3 μM and the basal and ONO-activated current densities are noted. Panel B: TASK-1 current was determined using a ramp clamp in Tyrode's solution at pH=8 and the percent increase induced by ONO-RS-082 was measured at the most positive imposed voltage (n≧4). The EC50 was around 8 μM and the basal and ONO-activated current densities are noted. Panel C: TRAAK current was determined using a ramp clamp, and the percent increase induced by ONO-RS-082 was measured at the most positive imposed voltage (n≧4). The EC50 was around 0.9 μM and the basal and ONO-activated current densities are noted.

murine TASK-1 = assay: TASK-1 current expressed in CHO cells (whole-cell ramp clamp); format: cell-based, mouse
How it was run: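 CHO cells transiently expressing murine TASK-1, with GFP or CD8 used to identify transfected cells, were studied 48 h after transfection. Whole-cell ramp-clamp recording at room temperature in Tyrode's pH 7.4 with a K-aspartate pipette solution. Records were corrected for a −9.8 mV junction potential and given as mean±SEM.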

## CCCCCc1ccc(C=CC(=O)Nc2cc(Cl)ccc2C(=O)O)cc1 [ONO-RS-082]
mTRAAK
  EC50: ~900 nM

## CCCCCCCCCCCCCCCCOC[C@H](COP(=O)([O-])OCC[N+](C)(C)C)OC(=O)NC [C-PAF, carbamyl-platelet-activating factor]
Murine TASK-1; +30 mV, C-PAF 185 nM or PMA 100 nM, no peptide
  TASK-1 current density in the presence of drug: 60.2±14.3 pA/pF
Murine TASK-1; +30 mV, PMA 100 nM (n=17), C-PAF 185 nM (n=20)
  inhibition of TASK-1 current: 12.1±1.0%
Murine TASK-1; C-PAF 185 nM
  time for decrease in TASK-1 current to reach steady state: ≤ 2 min
Murine TASK-1; C-PAF 185 nM, +30 mV, n=9
  decrease in the mean current density: 12%
Murine TASK-1; C-PAF 185 nM, Example 1
  effect on expressed TASK-1 current: reduced
Murine TASK-1; PKCε-inhibitor peptide 100 nM in pipette, C-PAF 185 nM or PMA 100 nM
  TASK-1 current density after drug: 25.4±12.4 pA/pF
Murine TASK-1; after washout of C-PAF 185 nM
  I-V relation after washout, deviation from control value: ≤ 5%
Murine TASK-1; modified Tyrode's, elevated K+
  C-PAF inhibition of TASK-1 current: 10.2±1.8%
Murine TASK-1; scrambled peptide in pipette
  C-PAF-induced inhibition of TASK-1: 8.4±1.5%
